From patent US20250228239A1, “MOLECULES HAVING PESTICIDAL UTILITY, AND INTERMEDIATES, COMPOSITIONS, AND PROCESSES, RELATED THERETO” (priority 2024, published 2025) come the findings set out here.

Holding throughout (type): in vivo
Assay [1] relates to Cabbage Looper (Trichoplusia ni, TRIPNI). Briefly: Bioassays on Cabbage Looper (CL), 128-well diet tray assay. The following applies: Trichoplusia ni. An outline of the steps: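 One to five second-instar larvae per well on artificial diet surface-treated with 50 μg/cm^2 test molecule (applied in 90:10 acetone-water, dried). Held 5–7 days at 25° C, 14:10 light-dark; percent mortality recorded per well and averaged over eight wells.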

Assay [2] concerns Beet Armyworm (Spodoptera exigua, LAPHEG). As to the kind of experiment: Bioassays on Beet Armyworm (BAW), 128-well diet tray assay. The following applies: Spodoptera exigua. In a few lines: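 Test molecule was dissolved in 90:10 acetone-water and applied at 50 μg/cm^2 onto artificial diet in eight wells, then dried. Second instar larvae, one to five per well, were added, and trays were kept vented at 25° C. with a 14:10 photoperiod for five to seven days before mortality was recorded.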

Assay [3] relates to Yellow Fever Mosquito (Aedes aegypti, AEDSAE). The note with it: for YFM rating: Table ABC / ABC-DP rating. In a few lines:
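Rating-scale grades reflect larval mortality scored per well after 3 days at room temperature under non-evaporative lids. Larvae (~1 day old, hatched overnight in liver-powder water) were added to six daughter plates per compound, prepared from a 4000 ppm DMSO stock diluted in 90:10 water/acetone.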

Setting [4] is: Table ABC: Biological Results, species CL, read-out: CL.
[5] abbreviates: Table ABC: Biological Results, species BAW, read-out: BAW.
[6] abbreviates: Table ABC: Biological Results, species YFM.
The mark [7] stands for this setting: Cabbage Looper, Table ABC / ABC-DP rating, read-out: CL rating.
Setting [8] is: Beet Armyworm, Table ABC / ABC-DP rating, read-out: BAW rating.
Setting [9] is: Cabbage Looper, rating class, read-out: CL.
Setting [10] is: Beet Armyworm, rating class, read-out: BAW.
[11] abbreviates: Yellow Fever Mosquito, rating class.

Read-outs that look alike come from different tables or passages of the source.

As to `Cc1cc(NC(=O)[C@H]2[C@H](c3ccc(F)c(Cl)c3)C2(Cl)Cl)cc(C(=O)Nc2ccc(F)cc2)c1Cl` (relative stereo) [F1184, trans-2-Chloro-5-(2,2-dichloro-3-(3-chloro-4-fluorophenyl)cyclopropane-1-carboxamido)-N-(4-fluorophenyl)-3-methylbenzamide], the pest or weed control at 50 µg/cm2 in assay [1] (setting [4]) and in assay [2] (setting [5]) was 50 to 100% each time. Also, the YFM entry in assay [3] (setting [6]) is “A (80–100)”.
Regarding `CC(C)(C)OC(=O)Nc1c(F)ccc(NC(=O)c2cc(NC(=O)[C@H]3[C@H](c4ccc(Cl)c(C(F)(F)F)c4)C3(Cl)Cl)ccc2Cl)c1F` (relative stereo) [F1077, trans-tert-Butyl-(3-(2-chloro-5-(2,2-dichloro-3-(4-chloro-3-(trifluoromethyl)phenyl)cyclopropane-1-carboxamido)benzamido)-2,6-difluorophenyl)carbamate], the pest or weed control at 50 µg/cm2 in assay [1] (setting [4]) and in assay [2] (setting [5]) was 50 to 100% in each case. Besides, in assay [3] (setting [6]), the YFM result is on record as “A (80–100)”.
As for `N#Cc1ccc(NNC(=O)c2cc(NC(=O)[C@H]3[C@H](c4cc(Cl)cc(Cl)c4)C3(Cl)Cl)ccc2Cl)cc1` (relative stereo) [F2554, trans-2,2-Dichloro-N-(4-chloro-3-(2-(4-cyanophenyl)hydrazine-1-carbonyl)phenyl)-3-(3,5-dichlorophenyl)cyclopropane-1-carboxamide], the pest or weed control at 50 µg/cm2 in assay [1] (setting [7]) and in assay [2] (setting [8]) was 50 to 100% in each case. For the same molecule, the YFM rating entry in assay [3] (Yellow Fever Mosquito) is listed as “A (80–100)”.
For the molecule `C/C=C/C(=O)Nc1c(F)ccc(NC(=O)c2cc(NC(=O)[C@H]3[C@H](c4ccc(F)c(C(F)(F)F)c4)C3(Cl)Cl)ccc2Cl)c1F` [F1868, N-(3-((E)-But-2-enamido)-2,4-difluorophenyl)-2-chloro-5-((1R,3R)-2,2-dichloro-3-(4-fluoro-3-(trifluoromethyl)phenyl)cyclopropane-1-carboxamido)benzamide], the pest or weed control at 50 µg/cm2 in assay [1] (setting [7]) and in assay [2] (setting [8]) was 50 to 100% in each case. Besides, in assay [3] (Yellow Fever Mosquito), the YFM rating result is on record as “A (80–100)”.
Consider `CC(F)(F)C(=O)Nc1c(F)ccc(NC(=O)c2cc(NC(=O)[C@H]3[C@H](c4ccc(Cl)c(Cl)c4)C3(Cl)Cl)ccc2Cl)c1F` [F1249, 2-Chloro-5-((1R,3R)-2,2-dichloro-3-(3,4-dichlorophenyl)cyclopropane-1-carboxamido)-N-(3-(2,2-difluoropropanamido)-2,4-difluorophenyl)benzamide], for which the pest or weed control at 50 µg/cm2 in assay [1] (setting [4]) and in assay [2] (setting [5]) was 50 to 100% in each case. Further, in assay [3] (setting [6]), the YFM result is “A (80–100)”.
Consider `O=C(Nc1c(F)ccc(NC(=O)c2cc(NC(=O)[C@H]3[C@H](c4ccc(Cl)c(Cl)c4)C3(Cl)Cl)ccc2Cl)c1F)c1ccno1` [F1671, N-(3-(2-Chloro-5-((1R,3R)-2,2-dichloro-3-(3,4-dichlorophenyl)cyclopropane-1-carboxamido)benzamido)-2,6-difluorophenyl)isoxazole-5-carboxamide], for which the pest or weed control at 50 µg/cm2 in assay [1] (setting [9]) and in assay [2] (setting [10]) was 50 to 100% in each case. The YFM entry in assay [3] (setting [11]) is on record as “B (More than 0 – Less than 80)”.
Turning to `O=C(Nc1ccc(F)c(NC(=O)C2CCOC2)c1F)c1cc(NC(=O)[C@H]2[C@H](c3ccc(Cl)c(Cl)c3)C2(Cl)Cl)ccc1Cl` (stereo partly drawn) [F1610, N-(3-(2-Chloro-5-((1R,3R)-2,2-dichloro-3-(3,4-dichlorophenyl)cyclopropane-1-carboxamido)benzamido)-2,6-difluorophenyl)tetrahydrofuran-3-carboxamide], the pest or weed control at 50 µg/cm2 in assay [1] (setting [9]) and in assay [2] (setting [10]) was 50 to 100% in each case. In assay [3] (setting [11]), the YFM entry is given as “A (80–100)”.
With `C=CCN(C(=O)c1cc(NC(=O)[C@H]2[C@H](c3ccc(F)c(C(F)(F)F)c3)C2(Cl)Cl)ccc1Cl)c1ccc(F)c(N)c1F` (relative stereo) [F1113, trans-N-Allyl-N-(3-amino-2,4-difluorophenyl)-2-chloro-5-(2,2-dichloro-3-(4-fluoro-3-(trifluoromethyl)phenyl)cyclopropane-1-carboxamido)benzamide], the pest or weed control at 50 µg/cm2 in assay [1] (setting [4]) and in assay [2] (setting [5]) was 50 to 100% each time. The YFM entry in assay [3] (setting [6]) is reported as “A (80–100)”.
In the case of `CC(=O)NNC(=O)c1cc(NC(=O)[C@H]2[C@H](c3cc(Cl)cc(Cl)c3)C2(Cl)Cl)ccc1Cl` (relative stereo) [F2514, trans-N-(3-(2-acetylhydrazine-1-carbonyl)-4-chlorophenyl)-2,2-dichloro-3-(3,5-dichlorophenyl)cyclopropane-1-carboxamide], the pest or weed control at 50 µg/cm2 in assay [1] (setting [7]) and in assay [2] (setting [8]) was 50 to 100% throughout. Besides, the YFM rating entry in assay [3] (Yellow Fever Mosquito) is recorded as “A (80–100)”.
As for `CC(=O)Nc1c(F)cc(F)c(NC(=O)c2cc(NC(=O)[C@H]3[C@H](c4ccc(Cl)c(Cl)c4)C3(Cl)Cl)ccc2Cl)c1F` [F1629, N-(3-Acetamido-2,4,6-trifluorophenyl)-2-chloro-5-((1R,3R)-2,2-dichloro-3-(3,4-dichlorophenyl)cyclopropane-1-carboxamido)benzamide], the pest or weed control at 50 µg/cm2 in assay [1] (setting [9]) and in assay [2] (setting [10]) was 50 to 100% throughout. Also, the YFM result in assay [3] (setting [11]) is on record as “B (More than 0 – Less than 80)”.
For `O=C(Nc1ccc(F)c(NC(=O)C2CCCO2)c1F)c1cc(NC(=O)[C@H]2[C@H](c3cc(C(F)(F)F)cc(C(F)(F)F)c3)C2(Cl)Cl)ccc1Cl` (relative stereo) [F1805, trans-N-(3-(5-(3-(3,5-bis(Trifluoromethyl)phenyl)-2,2-dichlorocyclopropane-1-carboxamido)-2-chlorobenzamido)-2,6-difluorophenyl)tetrahydrofuran-2-carboxamide], the pest or weed control at 50 µg/cm2 in assay [1] (setting [7]) and in assay [2] (setting [8]) was 50 to 100% throughout. Also, the YFM rating result in assay [3] (Yellow Fever Mosquito) is “A (80–100)”.
For the molecule `CC(OC(F)(F)F)C(=O)Nc1c(F)ccc(NC(=O)c2cc(NC(=O)[C@H]3[C@H](c4cccc(C(F)(F)F)c4)C3(Cl)Cl)ccc2Cl)c1F` (stereo partly drawn) [F1775, 2-Chloro-5-((1R,3R)-2,2-dichloro-3-(3-(trifluoromethyl)phenyl)cyclopropane-1-carboxamido)-N-(2,4-difluoro-3-(2-(trifluoromethoxy)propanamido)phenyl)benzamide], the pest or weed control at 50 µg/cm2 in assay [1] (setting [7]) and in assay [2] (setting [8]) was 50 to 100% each time. In addition, in assay [3] (Yellow Fever Mosquito), the YFM rating entry is listed as “A (80–100)”.
Consider `Nc1c(F)ccc(NC(=O)c2cc(NC(=O)[C@H]3[C@@H](c4cc(F)c(Cl)c(Cl)c4)C3(Cl)Cl)ccc2Cl)c1F` (relative stereo) [F1047, cis-N-(3-Amino-2,4-difluorophenyl)-2-chloro-5-(2,2-dichloro-3-(3,4-dichloro-5-fluorophenyl)cyclopropane-1-carboxamido)benzamide], for which the pest or weed control at 50 µg/cm2 in assay [1] (setting [4]) and in assay [2] (setting [5]) was 50 to 100% each time. The YFM entry in assay [3] (setting [6]) is recorded as “A (80–100)”.
For `O=C(NNc1cc(Cl)ccc1Cl)c1cc(NC(=O)[C@H]2[C@H](c3cc(Cl)cc(Cl)c3)C2(Cl)Cl)ccc1Cl` (relative stereo) [F2561, trans-2,2-Dichloro-N-(4-chloro-3-(2-(2,5-dichlorophenyl)hydrazine-1-carbonyl)phenyl)-3-(3,5-dichlorophenyl)cyclopropane-1-carboxamide], the pest or weed control at 50 µg/cm2 in assay [1] (setting [7]) and in assay [2] (setting [8]) was 50 to 100% in each case. Also, the YFM rating entry in assay [3] (Yellow Fever Mosquito) is listed as “B (More than 0 – Less than 80)”.
As to `O=C(NCC(F)(F)C(F)(F)F)c1cc(NC(=O)[C@H]2[C@H](c3ccc(F)c(Cl)c3)C2(Cl)Cl)cc(C(F)(F)F)c1Cl` (relative stereo) [F2056, trans-2-Chloro-5-(2,2-dichloro-3-(3-chloro-4-fluorophenyl)cyclopropane-1-carboxamido)-N-(2,2,3,3,3-pentafluoropropyl)-3-(trifluoromethyl)benzamide], the pest or weed control at 50 µg/cm2 in assay [1] (setting [7]) and in assay [2] (setting [8]) was 50 to 100% throughout. Moreover, the YFM rating result in assay [3] (Yellow Fever Mosquito) was “A (80–100)”.
`C=CCC(=O)Nc1c(F)ccc(NC(=O)c2cc(NC(=O)[C@H]3[C@H](c4cc(F)cc(C(F)(F)F)c4)C3(Cl)Cl)ccc2Cl)c1F` [F1879, N-(3-(But-3-enamido)-2,4-difluorophenyl)-2-chloro-5-((1R,3R)-2,2-dichloro-3-(3-fluoro-5-(trifluoromethyl)phenyl)cyclopropane-1-carboxamido)benzamide]: the pest or weed control at 50 µg/cm2 in assay [1] (setting [7]) and in assay [2] (setting [8]) was 50 to 100% each time. Besides, the YFM rating result in assay [3] (Yellow Fever Mosquito) is reported as “A (80–100)”.
Turning to `CCNC(=O)c1cc(NC(=O)[C@H]2[C@H](c3ccc(F)c(Cl)c3)C2(Cl)Cl)cc(C)c1Cl` (relative stereo) [F2037, trans-2-Chloro-5-(2,2-dichloro-3-(3-chloro-4-fluorophenyl)cyclopropane-1-carboxamido)-N-ethyl-3-methylbenzamide], the pest or weed control at 50 µg/cm2 in assay [1] (setting [7]) and in assay [2] (setting [8]) was 50 to 100% in each case. Besides, the YFM rating result in assay [3] (Yellow Fever Mosquito) was “A (80–100)”.
